Here are results for 13 compounds from patent US20240024488A1, “COMPOUNDS AND USES THEREOF” (Foghorn Therapeutics Inc., priority 2020, published 2024).

The target in test [1] is T1, HiBit-BRG1 fusion protein (Homo sapiens, UniProt P51532).
T1 construct: expressed in transfected cells
As to the kind of experiment: HiBiT-BRG1 cell-based degradation assay (Nano-Glo HiBiT Lytic Detection, 24 h). As to conditions: HeLa cell line expressing HiBit-BRG1 and LgBit; for Dmax: read-out: BRG1 HiBit Degradation Maximum (%); for DC50: read-out: BRMG1 HiBit Degradation IC50. How it is done: Procedure: A stable HeLa cell line expressing HiBiT-BRM was generated. On day 0, 5000 cells were seeded in 40 μL of media into each well of 384-well cell culture plates. […] Subsequently plates were incubated for 24 h in a standard tissue culture incubator and equilibrated at room temperature for 15 minutes. Nano-Glo HiBiT Lytic Detection System (Promega N3050) reagent was freshly prepared and 20 ul was added to each well. Upon addition of this LgBit-containing reagent, the HiBiT and LgBiT proteins associate to form the luminescent NanoBiT luciferase. The plates were shaken for 10 minutes at room temperature and the bioluminescence read using an EnVision plate reader (PerkinElmer).
For measurement of BRG1 degradation, a stable HeLa cell line expressing HiBit-BRG1 and LgBit was generated. The same protocol as above was then followed.
(§1) The degradation % was calculated using the following formula: % degradation=100%−100%×(LumSample−LumLC)/(LumHC−LumLC). DMSO treated cells are employed as High Control (HC) and 2 μM of a known BRM/BRG1 degrader standard treated cells are employed as Low Control (LC).

In another test the target is T2, HiBit-BRM fusion protein (Homo sapiens, UniProt P51531).
T2 construct: expressed in transfected cells
The test can be described thus: HiBiT-BRM cell-based degradation assay (Nano-Glo HiBiT Lytic Detection, 24 h). As to conditions: HeLa cell line expressing HiBiT-BRM; for DC50: read-out: BRM HiBit Degradation IC50. How it is done: Procedure: A stable HeLa cell line expressing HiBiT-BRM was generated. On day 0, 5000 cells were seeded in 40 μL of media into each well of 384-well cell culture plates. On day 1, cells were treated with 120 nL DMSO or 120 nL of 3-fold serially DMSO-diluted compounds (10 points in duplicate with 30 μM as final top dose). Subsequently plates were incubated for 24 h in a standard tissue culture incubator and equilibrated at room temperature for 15 minutes. Nano-Glo HiBiT Lytic Detection System (Promega N3050) reagent was freshly prepared and 20 ul was added to each well. Upon addition of this LgBit-containing reagent, the HiBiT and LgBiT proteins associate to form the luminescent NanoBiT luciferase. The plates were shaken for 10 minutes at room temperature and the bioluminescence read using an EnVision plate reader (PerkinElmer).
as §1

Each structure is given as a SMILES string. Bounds are passed on as bounds.

T1 sequence (P51532 whole entry, the tested form may be a part): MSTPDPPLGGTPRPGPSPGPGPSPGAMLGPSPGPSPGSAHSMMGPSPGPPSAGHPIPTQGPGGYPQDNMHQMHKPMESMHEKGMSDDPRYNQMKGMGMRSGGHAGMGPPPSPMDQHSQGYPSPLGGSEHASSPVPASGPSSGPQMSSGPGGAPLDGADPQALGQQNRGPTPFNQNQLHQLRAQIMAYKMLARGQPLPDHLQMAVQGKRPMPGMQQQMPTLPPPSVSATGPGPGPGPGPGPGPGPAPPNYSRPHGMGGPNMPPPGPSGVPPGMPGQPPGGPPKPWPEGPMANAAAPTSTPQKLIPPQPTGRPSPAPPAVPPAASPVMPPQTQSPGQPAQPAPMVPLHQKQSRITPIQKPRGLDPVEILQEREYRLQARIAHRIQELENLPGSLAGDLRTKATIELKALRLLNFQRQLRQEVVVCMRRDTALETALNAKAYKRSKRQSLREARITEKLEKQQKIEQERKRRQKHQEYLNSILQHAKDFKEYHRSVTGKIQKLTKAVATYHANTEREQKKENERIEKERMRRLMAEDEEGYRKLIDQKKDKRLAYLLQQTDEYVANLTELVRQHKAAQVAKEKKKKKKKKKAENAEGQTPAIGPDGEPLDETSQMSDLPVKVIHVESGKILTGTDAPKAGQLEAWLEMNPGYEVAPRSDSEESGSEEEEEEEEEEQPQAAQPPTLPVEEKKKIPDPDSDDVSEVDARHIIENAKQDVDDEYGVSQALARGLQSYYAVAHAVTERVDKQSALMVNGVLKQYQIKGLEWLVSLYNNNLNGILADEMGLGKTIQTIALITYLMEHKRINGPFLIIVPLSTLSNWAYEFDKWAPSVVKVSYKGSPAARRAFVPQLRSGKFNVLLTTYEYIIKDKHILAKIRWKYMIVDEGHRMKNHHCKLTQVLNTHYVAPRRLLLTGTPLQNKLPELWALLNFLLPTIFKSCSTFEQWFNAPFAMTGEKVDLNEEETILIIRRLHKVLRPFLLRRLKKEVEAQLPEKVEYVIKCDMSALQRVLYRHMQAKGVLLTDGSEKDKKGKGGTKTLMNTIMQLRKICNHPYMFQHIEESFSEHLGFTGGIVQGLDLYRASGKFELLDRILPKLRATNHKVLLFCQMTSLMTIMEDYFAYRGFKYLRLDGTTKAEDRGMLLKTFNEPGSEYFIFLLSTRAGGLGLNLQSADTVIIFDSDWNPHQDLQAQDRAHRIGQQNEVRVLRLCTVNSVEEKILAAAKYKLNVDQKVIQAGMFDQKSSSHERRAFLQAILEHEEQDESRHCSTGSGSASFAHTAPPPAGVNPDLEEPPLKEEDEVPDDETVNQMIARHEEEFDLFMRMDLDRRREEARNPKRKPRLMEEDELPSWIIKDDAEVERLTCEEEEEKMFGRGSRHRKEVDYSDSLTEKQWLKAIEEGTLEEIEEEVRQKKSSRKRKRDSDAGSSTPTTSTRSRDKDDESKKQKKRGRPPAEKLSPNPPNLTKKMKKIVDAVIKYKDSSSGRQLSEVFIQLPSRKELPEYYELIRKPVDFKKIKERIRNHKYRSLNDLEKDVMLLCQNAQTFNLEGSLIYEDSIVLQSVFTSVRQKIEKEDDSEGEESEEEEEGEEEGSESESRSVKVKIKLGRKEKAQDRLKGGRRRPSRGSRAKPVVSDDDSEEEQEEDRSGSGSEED
T2 sequence (P51531 whole entry, the tested form may be a part): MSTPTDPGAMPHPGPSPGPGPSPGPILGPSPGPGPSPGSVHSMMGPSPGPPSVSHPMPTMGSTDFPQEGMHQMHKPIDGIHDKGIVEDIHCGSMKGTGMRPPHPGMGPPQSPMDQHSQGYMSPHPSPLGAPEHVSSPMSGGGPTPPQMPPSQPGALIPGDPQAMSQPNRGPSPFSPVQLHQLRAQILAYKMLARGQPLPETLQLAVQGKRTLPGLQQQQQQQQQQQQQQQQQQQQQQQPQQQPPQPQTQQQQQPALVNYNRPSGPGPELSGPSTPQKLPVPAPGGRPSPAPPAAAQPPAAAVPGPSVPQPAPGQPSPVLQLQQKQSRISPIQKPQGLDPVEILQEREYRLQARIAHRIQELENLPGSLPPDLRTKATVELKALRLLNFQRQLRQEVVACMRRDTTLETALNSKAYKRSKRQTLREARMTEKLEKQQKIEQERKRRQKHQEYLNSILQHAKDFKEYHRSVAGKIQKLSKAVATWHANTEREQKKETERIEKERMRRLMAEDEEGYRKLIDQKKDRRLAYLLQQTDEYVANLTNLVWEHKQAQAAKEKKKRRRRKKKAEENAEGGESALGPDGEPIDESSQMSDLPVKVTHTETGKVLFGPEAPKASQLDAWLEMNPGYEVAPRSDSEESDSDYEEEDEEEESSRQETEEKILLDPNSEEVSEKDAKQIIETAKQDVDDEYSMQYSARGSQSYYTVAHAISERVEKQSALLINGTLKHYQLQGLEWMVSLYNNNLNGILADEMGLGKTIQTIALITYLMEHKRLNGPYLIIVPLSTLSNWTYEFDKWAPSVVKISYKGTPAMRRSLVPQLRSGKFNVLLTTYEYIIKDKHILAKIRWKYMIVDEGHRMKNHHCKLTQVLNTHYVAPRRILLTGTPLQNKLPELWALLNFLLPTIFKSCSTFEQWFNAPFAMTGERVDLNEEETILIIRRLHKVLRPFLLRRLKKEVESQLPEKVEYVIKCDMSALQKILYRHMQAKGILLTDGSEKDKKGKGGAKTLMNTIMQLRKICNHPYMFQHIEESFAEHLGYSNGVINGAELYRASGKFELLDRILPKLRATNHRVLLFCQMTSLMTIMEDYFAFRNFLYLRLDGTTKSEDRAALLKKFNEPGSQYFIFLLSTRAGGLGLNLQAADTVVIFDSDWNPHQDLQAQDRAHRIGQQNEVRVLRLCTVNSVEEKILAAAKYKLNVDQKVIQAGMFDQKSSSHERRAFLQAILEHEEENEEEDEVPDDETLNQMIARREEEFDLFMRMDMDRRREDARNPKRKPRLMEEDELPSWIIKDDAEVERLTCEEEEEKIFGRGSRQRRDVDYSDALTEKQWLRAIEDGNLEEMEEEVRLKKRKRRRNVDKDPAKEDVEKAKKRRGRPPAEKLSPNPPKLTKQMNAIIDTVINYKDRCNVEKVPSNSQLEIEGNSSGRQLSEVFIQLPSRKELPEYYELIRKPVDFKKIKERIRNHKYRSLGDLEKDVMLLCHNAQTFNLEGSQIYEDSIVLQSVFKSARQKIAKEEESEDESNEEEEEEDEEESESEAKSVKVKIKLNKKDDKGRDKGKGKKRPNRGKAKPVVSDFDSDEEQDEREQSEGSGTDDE

For `Cc1ncsc1-c1ccc([C@H](C)NC(=O)[C@@H]2C[C@@H](O)CN2C(=O)[C@@H](c2cc(OCCN3CC(c4[nH]c5nnc(-c6ccccc6O)cc5c4C4CC4)C3)no2)C(C)C)cc1` (racemic) [Compound 164, (2S,4R)-1-((R)-2-(3-(2-(3-(5-cyclopropyl-3-(2-hydroxyphenyl)-7H-pyrrolo[2,3-c]pyridazin-6-yl)azetidin-1-yl)ethoxy)isoxazol-5-yl)-3-methylbutanoyl)-4-hydroxy-N-((S)-1-(4-(4-methylthiazol-5-yl)phenyl)ethyl)pyrrolidine-2-carboxamide], in test [1], the Dmax was more than 75% and the DC50 is more than 100 nM. For the same compound, on HiBit-BRM fusion protein, the “BRM HiBit Degradation Maximum (%)” value is “A (“A” indicates maximum degradation ≥ 75%)” and the DC50 is more than 10 nM.

Take `Cc1ncsc1-c1ccc([C@H](C)NC(=O)[C@@H]2C[C@@H](O)CN2C(=O)[C@@H](c2cc(OCC(=O)N3CCc4[nH]c5nnc(-c6ccccc6O)cc5c4C3)no2)C(C)C)cc1` (racemic) [Compound 194, (2S,4R)-4-hydroxy-1-((R)-2-(3-(2-(3-(2-hydroxyphenyl)-5,7,8,9-tetrahydro-6H-pyrido[3′,4′:4,5]pyrrolo[2,3-c]pyridazin-6-yl)-2-oxoethoxy)isoxazol-5-yl)-3-methylbutanoyl)-N-((S)-1-(4-(4-methylthiazol-5-yl)phenyl)ethyl)pyrrolidine-2-carboxamide]: in test [1], the Dmax was less than 50%. The “BRM HiBit Degradation Maximum (%)” value on HiBit-BRM fusion protein is on record as “C (“C” indicates maximum degradation < 50%)”.

As for `Cc1ncsc1-c1ccc([C@H](C)NC(=O)[C@@H]2C[C@@H](O)CN2C(=O)[C@@H](c2cc(OCCN3CC(Cc4cc5cc(-c6ccccc6O)nnc5[nH]4)C3)no2)C(C)C)cc1` (racemic) [Compound 294, (2S,4R)-4-hydroxy-1-((R)-2-(3-(2-(3-((3-(2-hydroxyphenyl)-7H-pyrrolo[2,3-c]pyridazin-6-yl)methyl)azetidin-1-yl)ethoxy)isoxazol-5-yl)-3-methylbutanoyl)-N-((S)-1-(4-(4-methylthiazol-5-yl)phenyl)ethyl)pyrrolidine-2-carboxamide], the Dmax in test [1] was less than 50%. On HiBit-BRM fusion protein, the “BRM HiBit Degradation Maximum (%)” value is “A (“A” indicates maximum degradation ≥ 75%)” and the DC50 is more than 100 nM.

For the compound `Cc1ncsc1-c1ccc([C@H](C)NC(=O)[C@@H]2C[C@@H](O)CN2C(=O)[C@@H](c2cc(N3CCC(CN4CC(c5cc6cc(-c7ccccc7O)nnc6[nH]5)C4)CC3)no2)C(C)C)cc1` (racemic) [Compound 247, (2S,4R)-4-hydroxy-1-((R)-2-(3-(4-((3-(3-(2-hydroxyphenyl)-7H-pyrrolo[2,3-c]pyridazin-6-yl)azetidin-1-yl)methyl)piperidin-1-yl)isoxazol-5-yl)-3-methylbutanoyl)-N-((S)-1-(4-(4-methylthiazol-5-yl)phenyl)ethyl)pyrrolidine-2-carboxamide], in test [1], the Dmax is more than 50% and the DC50 is more than 1000 nM. Besides, at HiBit-BRM fusion protein, the “BRM HiBit Degradation Maximum (%)” value is “A (“A” indicates maximum degradation ≥ 75%)” and the DC50 was more than 10 nM.

Turning to `Cc1ncsc1-c1ccc([C@H](C)NC(=O)[C@@H]2C[C@@H](O)CN2C(=O)[C@@H](c2cc(-c3cnc(N4CCc5[nH]c6nnc(-c7ccccc7O)cc6c5C4)nc3)no2)C(C)C)cc1` (single isomer, unassigned) [Compound 85], in test [1], the Dmax is more than 75% and the DC50 is more than 100 nM. Also, at HiBit-BRM fusion protein, the “BRM HiBit Degradation Maximum (%)” value is “A (“A” indicates maximum degradation ≥ 75%)” and the DC50 was more than 10 nM.

For the compound `O=C1CCC(N2C(=O)c3ccc(NCCOCCOCCC(=O)N4CC(c5cc6cc(-c7ccccc7O)nnc6[nH]5)C4)cc3C2=O)C(=O)N1` (stereo not shown) [Compound 29, 2-(2,6-dioxopiperidin-3-yl)-5-((2-(2-(3-(3-(3-(2-hydroxyphenyl)-7H-pyrrolo[2,3-c]pyridazin-6-yl)azetidin-1-yl)-3-oxopropoxy)ethoxy)ethyl)amino)isoindoline-1,3-dione], the Dmax in test [1] was less than 50%. In addition, the “BRM HiBit Degradation Maximum (%)” value at HiBit-BRM fusion protein is “C (“C” indicates maximum degradation < 50%)”.

For `Cc1ncsc1-c1ccc([C@H](C)NC(=O)[C@@H]2C[C@@H](O)CN2C(=O)[C@H](c2cc(C3CN(C(=O)[C@H]4CCc5[nH]c6nnc(-c7ccccc7O)cc6c5C4)C3)no2)C(C)C)cc1` (single isomer, unassigned) [Compound 153], the Dmax in test [1] is less than 50%. Moreover, the “BRM HiBit Degradation Maximum (%)” value on HiBit-BRM fusion protein is listed as “C (“C” indicates maximum degradation < 50%)”.

Turning to `Cc1ncsc1-c1ccc(CNC(=O)[C@@H]2C[C@@H](O)CN2C(=O)[C@@H](NC(=O)C2(F)CC2)C(C)(C)C)c(OCCN2CC(c3cc4cc(-c5ccccc5O)nnc4[nH]3)C2)c1` (racemic) [Compound 63, (2S,4R)-1-((S)-2-(1-fluorocyclopropane-1-carboxamido)-3,3-dimethylbutanoyl)-4-hydroxy-N-(2-(2-(3-(3-(2-hydroxyphenyl)-7H-pyrrolo[2,3-c]pyridazin-6-yl)azetidin-1-yl)ethoxy)-4-(4-methylthiazol-5-yl)benzyl)pyrrolidine-2-carboxamide], the Dmax in test [1] was less than 50%. In addition, on HiBit-BRM fusion protein, the “BRM HiBit Degradation Maximum (%)” value was “C (“C” indicates maximum degradation < 50%)”.

With `Cc1ncsc1-c1ccc(CNC(=O)[C@@H]2C[C@@H](O)CN2C(=O)[C@@H](NC(=O)CCCC(=O)N[C@@H]2CCc3[nH]c4nnc(-c5ccccc5O)cc4c3C2)C(C)(C)C)cc1` [Compound 180, N1-((S)-1-((2S,4R)-4-hydroxy-2-((4-(4-methylthiazol-5-yl)benzyl)carbamoyl)pyrrolidin-1-yl)-3,3-dimethyl-1-oxobutan-2-yl)-N5-((R)-3-(2-hydroxyphenyl)-6,7,8,9-tetrahydro-5H-pyridazino[3,4-b]indol-6-yl)glutaramide], in test [1], the Dmax is less than 50%. Moreover, on HiBit-BRM fusion protein, the “BRM HiBit Degradation Maximum (%)” value was “C (“C” indicates maximum degradation < 50%)”.

With `Cc1ncsc1-c1ccc([C@H](C)NC(=O)[C@@H]2C[C@@H](O)CN2C(=O)[C@@H](c2cc(OCCN3CCN(c4cc5cc(-c6ccccc6O)nnc5[nH]4)CC3)no2)C(C)C)cc1` (racemic) [Compound 235, (2S,4R)-4-hydroxy-1-((R)-2-(3-(2-(4-(3-(2-hydroxyphenyl)-7H-pyrrolo[2,3-c]pyridazin-6-yl)piperazin-1-yl)ethoxy)isoxazol-5-yl)-3-methylbutanoyl)-N-((S)-1-(4-(4-methylthiazol-5-yl)phenyl)ethyl)pyrrolidine-2-carboxamide], in test [1], the Dmax was more than 75% and the DC50 was more than 10 nM. On HiBit-BRM fusion protein, the “BRM HiBit Degradation Maximum (%)” value is recorded as “A (“A” indicates maximum degradation ≥ 75%)” and the DC50 was more than 10 nM.

As for `Cc1ncsc1-c1ccc([C@H](C)NC(=O)[C@@H]2C[C@@H](O)CN2C(=O)[C@@H](c2cc(N3CCC(CN4CCc5[nH]c6nnc(-c7ccccc7O)cc6c5[C@H]4C)CC3)no2)C(C)C)cc1` (racemic) [Compound 81, (2S,4R)-4-hydroxy-1-[(2R)-2-[3-(4-{[(3R)-12-(2-hydroxyphenyl)-3-methyl-4,8,10,11-tetraazatricyclo[7.4.0.0^{2,7}]trideca-1(13),2(7),9,11-tetraen-4-yl]methyl}piperidin-1-yl)-1,2-oxazol-5-yl]-3-methylbutanoyl]-N-[(1S)-1-[4-(4-methyl-1,3-thiazol-5-yl)phenyl]ethyl]pyrrolidine-2-carboxamide], in test [1], the Dmax is more than 75% and the DC50 was more than 100 nM. On HiBit-BRM fusion protein, the “BRM HiBit Degradation Maximum (%)” value was “A (“A” indicates maximum degradation ≥ 75%)” and the DC50 was more than 10 nM.

In the case of `Cc1ncsc1-c1ccc([C@H](C)NC(=O)[C@@H]2C[C@@H](O)CN2C(=O)[C@@H](c2cc(C3CCN(C(=O)c4cc5cc(-c6ccccc6O)nnc5[nH]4)CC3)no2)C(C)C)cc1` (single isomer, unassigned) [Compound 203], the Dmax in test [1] is less than 50%. On HiBit-BRM fusion protein, the “BRM HiBit Degradation Maximum (%)” value is “A (“A” indicates maximum degradation ≥ 75%)” and the DC50 was more than 100 nM.

As to `Cc1ncsc1-c1ccc([C@H](C)NC(=O)[C@@H]2C[C@@H](O)CN2C(=O)[C@@H](c2cc(C3CN(C(=O)[C@H]4CCc5[nH]c6nnc(-c7ccccc7O)cc6c5C4)C3)no2)C(C)C)cc1` (relative stereo) [Compound 157, (2S,4R)-4-hydroxy-1-[(2R*)-2-(3-{1-[(6R**)-3-(2-hydroxyphenyl)-5H,6H,7H,8H,9H-pyridazino[3,4-b]indole-6-carbonyl]azetidin-3-yl}-1,2-oxazol-5-yl)-3-methylbutanoyl]-N-[(1S)-1-[4-(4-methyl-1,3-thiazol-5-yl)phenyl]ethyl]pyrrolidine-2-carboxamide], in test [1], the Dmax is more than 75% and the DC50 was more than 100 nM. Further, on HiBit-BRM fusion protein, the “BRM HiBit Degradation Maximum (%)” value is reported as “A (“A” indicates maximum degradation ≥ 75%)” and the DC50 was more than 100 nM.
